Data taken from article PMC12040969, “Design, synthesis, in silico studies, and apoptotic antiproliferative activity of novel thiazole-2-acetamide derivatives as tubulin polymerization inhibitors” (Frontiers in Chemistry, 2025).

Key:
[1] = Cell viability assay (MTT), normal cells; format: cell-based; conditions: human, MCF-10A normal mammary gland epithelial cells, four-day incubation
Protocol: The impact of novel compounds 10a-o and 13a-e on cell viability was examined using the MCF-10A (human mammary gland epithelial) normal cell line. The MTT test was employed to assess the cell viability of the novel compounds after a four-day incubation with MCF-10A cells ([El-Sherief et al., 2019]; [Ramadan et al., 2020]).
The effects of compounds 10a-o and 13a-e on cell viability were assessed using the human mammary gland epithelial normal cell line (MCF-10A). The MTT assay assessed the cell viability of compounds 10a-o and 13a-e following a four-day incubation with MCF-10A cells ([El-Sherief et al., 2019]; [Ramadan et al., 2020]). Check Supplementary Appendix A for additional information.
4.2. Biological evaluation
4.2.1 Cell Viability assay (MTT assay)
MTT assay was performed to investigate the effect of the synthesized compounds on mammary epithelial cells (MCF-10A). The cells were propagated in medium consisting of Ham's F-12 medium/ Dulbecco's modified Eagle's medium (DMEM) (1:1) supplemented with 10% foetal calf serum, 2 mM glutamine, insulin (10 μg/mL), hydrocortisone (500 ng/mL) and epidermal growth factor (20 ng/mL). Trypsin ethylenediamine tetra acetic acid (EDTA) was used to passage the cells after every 2-3 days. 96-well flat-bottomed cell culture plates were used to seed the cells at a density of 10^4 cells mL-1. The medium was aspirated from all the wells of culture plates after 24 h followed by the addition of synthesized compounds (in 200 μL medium to yield a final concentration of 0.1% (v/v) dimethyl sulfoxide) into individual wells of the plates.
Four wells were designated to a single compound. The plates were allowed to incubate at 37°C for 96 h. Afterwards, the medium was aspirated and 3-[4,5-dimethylthiazol-2-yl]-2,5-diphenyltetrazolium bromide (MTT) (0.4 mg/mL) in medium was added to each well and subsequently incubated for 3 h. The medium was aspirated and 150 μL dimethyl sulfoxide (DMSO) was added to each well. The plates were vortexed followed by the measurement of absorbance at 540 nm on a microplate reader. The results were presented as inhibition (%) of proliferation in contrast to controls comprising 0.1%

tubulin = test: Tubulin polymerization inhibition assay (Cytoskeleton kit);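 on all read-outs here: Cell-free tubulin polymerization read by fluorescent reporter enhancement over a 30 min reaction, with the compound-free kit control taken as 100% activity and inhibition relative to it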; conditions: for Tub %inh / Tub. enzyme inhibition assay %inhibition: 30 min; for Tub %inh: YB-EGY run; for Tub K.Activity: EC = 120, YB-EGY run; for IC50: read-out: Tubulin inhibition IC50 ± SEM, triplicate for each tested concentration; for Tub. enzyme inhibition assay %inhibition: codes 522-537 run; for Tub. enzyme inhibition assay K. Activity: control = 120, codes 522-537 run; for Tub. (IC50) IC50±SD: supplement raw data, lab codes

| SMILES | viability at 96 h, 50 µM [1] | Tub %inh (tubulin; conc 0.1 (unit not given)) | Tub K.Activity (tubulin; conc 0.1 (unit not given)) | Tub %inh (tubulin; conc 1 (unit not given)) | Tub K.Activity (tubulin; conc 1 (unit not given)) | Tub %inh (tubulin; conc 10 (unit not given)) | Tub K.Activity (tubulin; conc 10 (unit not given)) | Tub %inh (tubulin; conc 50 (unit not given)) | IC50 (tubulin) | Tub. enzyme inhibition assay %inhibition (tubulin; conc 0.01 (unit not given)) | Tub. enzyme inhibition assay K. Activity (tubulin; conc 0.01 (unit not given)) | Tub. enzyme inhibition assay %inhibition (tubulin; conc 0.1 (unit not given)) | Tub. enzyme inhibition assay K. Activity (tubulin; conc 0.1 (unit not given)) | Tub. enzyme inhibition assay %inhibition (tubulin; conc 1 (unit not given)) | Tub. enzyme inhibition assay K. Activity (tubulin; conc 1 (unit not given)) | Tub. enzyme inhibition assay %inhibition (tubulin; conc 10 (unit not given)) | Tub. enzyme inhibition assay K. Activity (tubulin; conc 10 (unit not given)) | Tub. enzyme inhibition assay %inhibition (tubulin; conc 100 (unit not given)) | Tub. enzyme inhibition assay K. Activity (tubulin; conc 100 (unit not given)) | Tub. (IC50) IC50±SD (tubulin) | other results |
| --- | --- | --- | --- | --- | --- | --- | --- | --- | --- | --- | --- | --- | --- | --- | --- | --- | --- | --- | --- | --- | --- |
| Cc1nc(SCC(=O)Nc2nc(-c3ccccc3)cs2)sc1C(=O)/C=C/c1ccc(Cl)cc1 [Compound 10b, (E)-2-((5-(3-(4-chlorophenyl)acryloyl)-4-methylthiazol-2-yl)thio)-N-(4-phenylthiazol-2-yl)acetamide] | 91% | 5.79% | 113.05 | 23.9% | 91.287 | 41.4% | 70.334 | 64.5% | 8.75 ± 0.27 µM |  |  |  |  |  |  |  |  |  |  |  | Tub K.Activity (tubulin; conc 50 (unit not given)): 42.629; Tub %inh (tubulin; conc 100 (unit not given)): 88.7%; Tub K.Activity (tubulin; conc 100 (unit not given)): 13.577 |
| Cc1nc(SCC(=O)Nc2nc(-c3ccccc3)cs2)sc1C(=O)/C=C/c1ccc(F)cc1 [Compound 10c, (E)-2-((5-(3-(4-fluorophenyl)acryloyl)-4-methylthiazol-2-yl)thio)-N-(4-phenylthiazol-2-yl)acetamide] | 89% | 4.47% | 114.64 | 12.4% | 105.09 | 25.6% | 89.245 | 52.5% | 22.5 ± 0.69 µM |  |  |  |  |  |  |  |  |  |  |  | Tub K.Activity (tubulin; conc 50 (unit not given)): 56.999; Tub %inh (tubulin; conc 100 (unit not given)): 83%; Tub K.Activity (tubulin; conc 100 (unit not given)): 20.424 |
| COc1ccc(/C=C/C(=O)c2sc(SCC(=O)Nc3nc(-c4ccccc4)cs3)nc2C)cc1 [Compound 10e, (E)-2-((5-(3-(4-methoxyphenyl)acryloyl)-4-methylthiazol-2-yl)thio)-N-(4-phenylthiazol-2-yl)acetamide] | 92% |  |  |  |  |  |  |  | 15.3 ± 0.49 µM | 2.57% | 116.92 | 9.6% | 108.49 | 20.4% | 95.5 | 46% | 64.791 | 83.3% | 19.996 | 7.77 ± 0.25 µg/mL |  |
| Cc1nc(SCC(=O)Nc2nc(-c3ccc(Cl)cc3)cs2)sc1C(=O)/C=C/c1ccc(Cl)cc1 [Compound 10g, (E)-2-((5-(3-(4-chlorophenyl)acryloyl)-4-methylthiazol-2-yl)thio)-N-(4-(4-chlorophenyl)thiazol-2-yl)acetamide] | 89% |  |  |  |  |  |  |  | 59.4 ± 3.78 µM | 0.65% | 119.22 | 5.24% | 113.71 | 15.3% | 101.63 | 32.3% | 81.206 | 70.5% | 35.432 | 32.45 ± 2.07 µg/mL |  |
| Cc1ccc(/C=C/C(=O)c2sc(SCC(=O)Nc3nc(-c4ccc(Cl)cc4)cs3)nc2C)cc1 [Compound 10i, (E)-N-(4-(4-chlorophenyl)thiazol-2-yl)-2-((4-methyl-5-(3-(p-tolyl)acryloyl)thiazol-2-yl)thio)acetamide] | 91% |  |  |  |  |  |  |  | 33.5 ± 1.21 µM | 1.51% | 118.18 | 5.52% | 113.37 | 19.3% | 96.892 | 41.3% | 70.409 | 72.1% | 33.442 | 17.63 ± 0.64 µg/mL |  |
| COc1ccc(/C=C/C(=O)c2sc(SCC(=O)Nc3nc(-c4ccc(Cl)cc4)cs3)nc2C)cc1 [Compound 10j, (E)-N-(4-(4-chlorophenyl)thiazol-2-yl)-2-((5-(3-(4-methoxyphenyl)acryloyl)-4-methylthiazol-2-yl)thio)acetamide] | 93% |  |  |  |  |  |  |  | 20.6 ± 0.75 µM | 2.01% | 117.59 | 7.08% | 111.51 | 22.6% | 92.923 | 45.7% | 65.175 | 75.5% | 29.401 | 11.14 ± 0.41 µg/mL |  |
| Cc1ccc(-c2csc(NC(=O)CSc3nc(C)c(C(=O)/C=C/c4ccccc4)s3)n2)cc1 [Compound 10k, (E)-2-((5-cinnamoyl-4-methylthiazol-2-yl)thio)-N-(4-(p-tolyl)thiazol-2-yl)acetamide] | 90% |  |  |  |  |  |  |  | 47.8 ± 1.74 µM | 0.28% | 119.66 | 5.09% | 113.89 | 16.5% | 100.23 | 36.5% | 76.175 | 71.9% | 33.707 | 23.48 ± 0.86 µg/mL |  |
| Cc1ccc(-c2csc(NC(=O)CSc3nc(C)c(C(=O)/C=C/c4ccc(Cl)cc4)s3)n2)cc1 [Compound 10l, (E)-2-((5-(3-(4-chlorophenyl)acryloyl)-4-methylthiazol-2-yl)thio)-N-(4-(p-tolyl)thiazol-2-yl)acetamide] | 89% |  |  |  |  |  |  |  | 13.9 ± 0.51 µM | 1.85% | 117.78 | 10.9% | 106.95 | 24.6% | 90.43 | 49.3% | 60.835 | 79.5% | 24.585 | 7.331 ± 0.27 µg/mL |  |
| Cc1ccc(/C=C/C(=O)c2sc(SCC(=O)Nc3nc(-c4ccc(C)cc4)cs3)nc2C)cc1 [Compound 10n, (E)-2-((4-methyl-5-(3-(p-tolyl)acryloyl)thiazol-2-yl)thio)-N-(4-(p-tolyl)thiazol-2-yl)acetamide] | 89% |  |  |  |  |  |  |  | 16 ± 0.59 µM | 2.01% | 117.59 | 8.94% | 109.27 | 26.1% | 88.73 | 49.9% | 60.139 | 76.7% | 27.908 | 8.075 ± 0.3 µg/mL |  |
| Cc1nc(SCC(=O)Nc2nccs2)sc1C(=O)/C=C/c1ccccc1 [Compound 13a, (E)-2-((5-cinnamoyl-4-methylthiazol-2-yl)thio)-N-(thiazol-2-yl)acetamide] | 89% | 5.68% | 113.18 | 16.6% | 100.09 | 32.4% | 81.141 | 62.4% | 15.8 ± 0.48 µM |  |  |  |  |  |  |  |  |  |  |  | Tub K.Activity (tubulin; conc 50 (unit not given)): 45.076; Tub %inh (tubulin; conc 100 (unit not given)): 78.7%; Tub K.Activity (tubulin; conc 100 (unit not given)): 25.608 |
